Experimental data taken from PubChem BioAssay AID180 (DTP/NCI, 2004).
“And” between values parts separate entries of the source, which are not always exact repeats. Identical values can stand only once.

Test system: BDF1 mice, Adenocarcinoma 755 s.c., tumor weight T/C
Test: NCI In Vivo Anticancer Drug Screen. Data for tumor model Adenocarcinoma 755 (subcutaneous) in B6D2F1 (BDF1) mice
Conditions: endpoint: mean tumor weight, schedule: Q01DX011 (ip), higher = larger tumour
How it was run: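 In vivo antitumor screen on a transplantable tumor line. Result equals the measure in compound-treated animals divided by the same measure in vehicle controls.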

[1] = dose: 15.0 mg/kg/injection, vehicle: methylcellulose (MC)
[2] = dose: 31.0 mg/kg/injection, vehicle: methylcellulose (MC)
[3] = dose: 62.0 mg/kg/injection, vehicle: methylcellulose (MC)

## Nc1nc(SCc2ccc([N+](=O)[O-])cc2)c2ncn(C3OC(CO)C(O)C3O)c2n1 (configuration not stated)
dose: 18.75 mg/kg/injection, vehicle: methylcellulose (MC)
  T/C: 23 % of control
dose: 37.5 mg/kg/injection, vehicle: methylcellulose (MC)
  T/C: 20 % of control
dose: 75.0 mg/kg/injection, vehicle: methylcellulose (MC)
  T/C: 8 % of control

## CC(=O)Nc1c(Cl)c(Cl)c2c(c1Cl)Cc1cc(Cl)ccc1-2
dose: 27.0 mg/kg/injection, vehicle: acetone
  T/C: 87 % of control
dose: 55.0 mg/kg/injection, vehicle: acetone
  T/C: 31 % of control
dose: 110.0 mg/kg/injection, vehicle: other
  T/C: 46 % of control
dose: 110.0 mg/kg/injection, vehicle: saline
  T/C: 31 % of control
dose: 225.0 mg/kg/injection, vehicle: other
  T/C: 32 % of control
dose: 225.0 mg/kg/injection, vehicle: saline
  T/C: 8 % of control
dose: 450.0 mg/kg/injection, vehicle: other
  T/C: 19 % of control

## CCOC=Nc1c(N)ncnc1F
dose: 30.0 mg/kg/injection, vehicle: carboxymethylcellulose (CMC)
  T/C: 92 % of control
dose: 60.0 mg/kg/injection, vehicle: carboxymethylcellulose (CMC)
  T/C: 89 % of control
dose: 120.0 mg/kg/injection, vehicle: carboxymethylcellulose (CMC)
  T/C: 57 % of control
dose: 240.0 mg/kg/injection, vehicle: carboxymethylcellulose (CMC)
  T/C: 55 % of control

## CNc1nc(N)nc(Nc2ccc(I)cc2)c1N=O
dose: 12.5 mg/kg/injection, vehicle: carboxymethylcellulose (CMC)
  T/C: 52 % of control
dose: 25.0 mg/kg/injection, vehicle: carboxymethylcellulose (CMC)
  T/C: 39 % of control and 52 % of control
dose: 50.0 mg/kg/injection, vehicle: methylcellulose (MC)
  T/C: 31 % of control
dose: 100.0 mg/kg/injection, vehicle: carboxymethylcellulose (CMC)
  T/C: 20 % of control and 36 % of control and 38 % of control
dose: 100.0 mg/kg/injection, vehicle: methylcellulose (MC)
  T/C: 46 % of control
dose: 200.0 mg/kg/injection, vehicle: carboxymethylcellulose (CMC)
  T/C: 28 % of control and 30 % of control
dose: 200.0 mg/kg/injection, vehicle: methylcellulose (MC)
  T/C: 25 % of control
dose: 400.0 mg/kg/injection, vehicle: methylcellulose (MC)
  T/C: 12 % of control

## CCNS(=O)(=O)c1ncnc2nc[nH]c12
dose: 6.0 mg/kg/injection, vehicle: other
  T/C: 94 % of control
dose: 6.2 mg/kg/injection, vehicle: methylcellulose (MC)
  T/C: 66 % of control
dose: 12.0 mg/kg/injection, vehicle: other
  T/C: 32 % of control
dose: 12.5 mg/kg/injection, vehicle: methylcellulose (MC)
  T/C: 36 % of control
dose: 25.0 mg/kg/injection, vehicle: methylcellulose (MC)
  T/C: 7 % of control and 10 % of control
dose: 25.0 mg/kg/injection, vehicle: other
  T/C: 15 % of control
dose: 50.0 mg/kg/injection, vehicle: other
  T/C: 5 % of control
dose: 100.0 mg/kg/injection, vehicle: other
  T/C: 10 % of control
dose: 150.0 mg/kg/injection, vehicle: other
  T/C: 5 % of control

## N#Cc1cn(Cc2ccco2)c(=O)[nH]c1=O
[1]
  T/C: 54 % of control
[2]
  T/C: 84 % of control
[3]
  T/C: 80 % of control

## CSc1nc(N)cc(=O)n1C
dose: 50.0 mg/kg/injection, vehicle: saline
  T/C: 100 % of control
dose: 100.0 mg/kg/injection, vehicle: saline
  T/C: 63 % of control
dose: 200.0 mg/kg/injection, vehicle: saline
  T/C: 98 % of control

## CSc1ncc(Br)c(Nc2ccc(Br)cc2)n1
[1]
  T/C: 94 % of control
[2]
  T/C: 103 % of control
[3]
  T/C: 123 % of control
dose: 125.0 mg/kg/injection, vehicle: methylcellulose (MC)
  T/C: 114 % of control
dose: 250.0 mg/kg/injection, vehicle: methylcellulose (MC)
  T/C: 86 % of control
